Results reported in patent publication US11970523B2 (priority 2018, dated 2024).

Assay: Weight gain slowing test
Assay type: in vivo, Male C57bl/6 mice
Details: high-fat fed mice, 50 nmol/kg every day for 56 days
Description: (§1) Male C57bl/6 mice were fed with high-fat feed for 4 weeks. The mice with body weights greater than 30 g were selected for the test, and were randomly divided into 26 groups, 8 mice per group. […] Fasting body weights of each group of mice on Day 1 and Day 56 were tested, and the average body weight change of each group of mice was examined.
as §1, with “7” for “26”
as §1, with “8” for “26”

Oxyntomodulin [OXM, reference compound]
fasting body weight, Day 1 (Table 3, in g (unit assumed)): 32.5 ± 0.7
fasting body weight, Day 56 (Table 3, in g (unit assumed)): 40.3 ± 1.3
fasting body weight, Day 1 (Table 5, in g (unit assumed)): 31.0 ± 0.8
fasting body weight, Day 56 (Table 5, in g (unit assumed)): 41.0 ± 0.7
fasting body weight, Day 1 (Table 7, in g (unit assumed)): 30.5 ± 0.6
fasting body weight, Day 56 (Table 7, in g (unit assumed)): 39.6 ± 1.3
fasting body weight, Day 1 (Table 9, in g (unit assumed)): 31.9 ± 0.6
fasting body weight, Day 56 (Table 9, in g (unit assumed)): 42.1 ± 1.3
fasting body weight, Day 56 (Table 11): 43.3±
fasting body weight, Day 1 (Table 11, in g (unit assumed)): 32.7
